The results in this text go back to ChEMBL document CHEMBL3994622, “Design and synthesis of new RAF kinase-inhibiting antiproliferative quinoline derivatives. Part 2: Diarylurea derivatives” (Eur J Med Chem, 2017).

Assay [1] deals with Vascular endothelial growth factor receptor 2 (Homo sapiens) (UniProt P35968). Nature of the assay: Inhibition of human KDR at 10 uM using poly[Glu:Tyr] (4:1) as substrate in presence of [33P]ATP by Hotspot assay relative to control.
The subject of assay [2] is EKVX. Briefly: Growth inhibition of human EKVX cells assessed as cell growth at 0.3 uM incubated for 48 hrs by sulforhodamine B assay relative to control. It counts as functional. Conditions: read-out: Activity.
In assay [3] the test system is OVCAR-3. Briefly: Growth inhibition of human OVCAR3 cells assessed as cell growth at 0.5 uM incubated for 48 hrs by sulforhodamine B assay relative to control. It counts as functional. The conditions noted are these: OVCAR-3, 48 h, read-out: Activity. On the technique in general: Sulforhodamine B stains cellular protein and so reports cell mass.
In assay [4] the test system is UACC-62. Briefly: Growth inhibition of human UACC62 cells assessed as cell growth at 0.005 uM incubated for 48 hrs by sulforhodamine B assay relative to control. It counts as functional. Conditions: UACC-62, 48 h, read-out: Activity.
For assay [5], the system named is LOX IMVI. Briefly: Growth inhibition of human LOXIMVI cells assessed as cell growth at 0.005 uM incubated for 48 hrs by sulforhodamine B assay relative to control. It counts as functional. Conditions: read-out: Activity.
Assay [6] deals with NCI-H322M. Nature of the assay: Growth inhibition of human NCI-H322M cells assessed as cell growth at 0.05 uM incubated for 48 hrs by sulforhodamine B assay relative to control. The class given is functional. The conditions noted are these: read-out: Activity.
Assay [7] has as its system A498. Nature of the assay: Growth inhibition of human A498 cells assessed as cell growth at 0.5 uM incubated for 48 hrs by sulforhodamine B assay relative to control. It counts as functional. Conditions: A498, 48 h, read-out: Activity.
The test system of assay [8] is SR. Briefly: Growth inhibition of human SR cells assessed as cell growth at 0.5 uM incubated for 48 hrs by sulforhodamine B assay relative to control. It counts as functional. Conditions: read-out: Activity.
Assay [9] relates to NCI/ADR-RES. Nature of the assay: Growth inhibition of human NCI/ADR-RES cells assessed as cell growth at 50 uM incubated for 48 hrs by sulforhodamine B assay relative to control. The class given is functional. Conditions: read-out: Activity.
The test system of assay [10] is UO-31. Briefly: Growth inhibition of human UO31 cells assessed as cell growth at 5 uM incubated for 48 hrs by sulforhodamine B assay relative to control. The class given is functional. Conditions: UO-31, 48 h, read-out: Activity.
Assay [11] concerns HCT-15. Briefly: Growth inhibition of human HCT15 cells assessed as cell growth at 50 uM incubated for 48 hrs by sulforhodamine B assay relative to control. The conditions noted are these: HCT-15, 48 h, read-out: Activity. The class given is functional.
The subject of assay [12] is NCI-H23. Briefly: Growth inhibition of human NCI-H23 cells assessed as cell growth at 50 uM incubated for 48 hrs by sulforhodamine B assay relative to control. The class given is functional. Conditions: NCI-H23, 48 h, read-out: Activity.
The test system of assay [13] is NCI-H226. Briefly: Growth inhibition of human NCI-H226 cells assessed as cell growth at 0.05 uM incubated for 48 hrs by sulforhodamine B assay relative to control. It counts as functional. The conditions noted are these: NCI-H226, 48 h, read-out: Activity.
In assay [14] the test system is SK-MEL-5. Nature of the assay: Growth inhibition of human SK-MEL-5 cells assessed as cell growth at 0.05 uM incubated for 48 hrs by sulforhodamine B assay relative to control. It counts as functional. Conditions: SK-MEL-5, 48 h, read-out: Activity.
For assay [15], the system named is SW-620. Briefly: Growth inhibition of human SW620 cells assessed as cell growth at 5 uM incubated for 48 hrs by sulforhodamine B assay relative to control. The class given is functional. Conditions: SW-620, 48 h, read-out: Activity.
For assay [16], the system named is NCI/ADR-RES. Nature of the assay: Growth inhibition of human NCI/ADR-RES cells assessed as cell growth at 0.5 uM incubated for 48 hrs by sulforhodamine B assay relative to control. Conditions: read-out: Activity. The class given is functional.
Assay [17] relates to UO-31. Briefly: Growth inhibition of human UO31 cells assessed as cell growth at 0.5 uM incubated for 48 hrs by sulforhodamine B assay relative to control. It counts as functional. Conditions: UO-31, 48 h, read-out: Activity.
In assay [18] the test system is RPMI-8226. Briefly: Growth inhibition of human RPMI8226 cells assessed as cell growth at 0.005 uM incubated for 48 hrs by sulforhodamine B assay relative to control. The class given is functional. Conditions: RPMI-8226, 48 h, read-out: Activity.
For assay [19], the system named is NCI-H322M. Briefly: Growth inhibition of human NCI-H322M cells assessed as cell growth at 0.5 uM incubated for 48 hrs by sulforhodamine B assay relative to control. The conditions noted are these: read-out: Activity. It counts as functional.
Assay [20] relates to NCI-H226. Briefly: Growth inhibition of human NCI-H226 cells assessed as cell growth at 50 uM incubated for 48 hrs by sulforhodamine B assay relative to control. The conditions noted are these: NCI-H226, 48 h, read-out: Activity. The class given is functional.
For assay [21], the system named is MOLT-4. Briefly: Growth inhibition of human MOLT4 cells assessed as cell growth at 0.5 uM incubated for 48 hrs by sulforhodamine B assay relative to control. It counts as functional. The conditions noted are these: MOLT-4, 48 h, read-out: Activity.
Assay [22] deals with OVCAR-4. Briefly: Growth inhibition of human OVCAR4 cells assessed as cell growth at 0.05 uM incubated for 48 hrs by sulforhodamine B assay relative to control. The class given is functional. The conditions noted are these: OVCAR-4, 48 h, read-out: Activity.
For assay [23], the system named is IGROV-1. Briefly: Growth inhibition of human IGROV1 cells assessed as cell growth at 0.5 uM incubated for 48 hrs by sulforhodamine B assay relative to control. The conditions noted are these: IGROV-1, 48 h, read-out: Activity. The class given is functional.
For assay [24], the system named is NCI-H522. Briefly: Growth inhibition of human NCI-H522 cells assessed as cell growth at 50 uM incubated for 48 hrs by sulforhodamine B assay relative to control. The class given is functional. The conditions noted are these: NCI-H522, 48 h, read-out: Activity.
Assay [25] deals with SK-MEL-5. Briefly: Growth inhibition of human SK-MEL-5 cells assessed as cell growth at 0.5 uM incubated for 48 hrs by sulforhodamine B assay relative to control. The class given is functional. Conditions: SK-MEL-5, 48 h, read-out: Activity.
Assay [26] concerns EKVX. Nature of the assay: Growth inhibition of human EKVX cells assessed as cell growth at 0.05 uM incubated for 48 hrs by sulforhodamine B assay relative to control. The class given is functional. The conditions noted are these: read-out: Activity.
For assay [27], the system named is TK-10. Briefly: Growth inhibition of human TK10 cells assessed as cell growth at 0.05 uM incubated for 48 hrs by sulforhodamine B assay relative to control. It counts as functional. Conditions: TK-10, 48 h, read-out: Activity.
The subject of assay [28] is MDA-MB-435. Briefly: Growth inhibition of human MDA-MB-435 cells assessed as cell growth at 50 uM incubated for 48 hrs by sulforhodamine B assay relative to control. Conditions: MDA-MB-435, 48 h, read-out: Activity. The class given is functional.
For assay [29], the system named is SF-295. Briefly: Growth inhibition of human SF295 cells assessed as cell growth at 5 uM incubated for 48 hrs by sulforhodamine B assay relative to control. It counts as functional. The conditions noted are these: SF-295, 48 h, read-out: Activity.
The test system of assay [30] is SK-MEL-28. Briefly: Growth inhibition of human SK-MEL-28 cells assessed as cell growth at 50 uM incubated for 48 hrs by sulforhodamine B assay relative to control. The class given is functional. Conditions: SK-MEL-28, 48 h, read-out: Activity.
Assay [31] concerns SNB-75. Briefly: Growth inhibition of human SNB75 cells assessed as cell growth at 0.005 uM incubated for 48 hrs by sulforhodamine B assay relative to control. The class given is functional. The conditions noted are these: SNB-75, 48 h, read-out: Activity.
Assay [32] deals with HCC 2998. Briefly: Growth inhibition of human HCC2998 cells assessed as cell growth at 0.05 uM incubated for 48 hrs by sulforhodamine B assay relative to control. The class given is functional. Conditions: HCC 2998, 48 h, read-out: Activity.
Assay [33] has as its system SNB-75. Briefly: Growth inhibition of human SNB75 cells assessed as cell growth at 5 uM incubated for 48 hrs by sulforhodamine B assay relative to control. The class given is functional. Conditions: SNB-75, 48 h, read-out: Activity.
Assay [34] concerns SN12C. Nature of the assay: Growth inhibition of human SN12C cells assessed as cell growth at 0.5 uM incubated for 48 hrs by sulforhodamine B assay relative to control. The class given is functional. Conditions: read-out: Activity.

Vascular endothelial growth factor receptor 2 (Homo sapiens), sequence (P35968 whole entry): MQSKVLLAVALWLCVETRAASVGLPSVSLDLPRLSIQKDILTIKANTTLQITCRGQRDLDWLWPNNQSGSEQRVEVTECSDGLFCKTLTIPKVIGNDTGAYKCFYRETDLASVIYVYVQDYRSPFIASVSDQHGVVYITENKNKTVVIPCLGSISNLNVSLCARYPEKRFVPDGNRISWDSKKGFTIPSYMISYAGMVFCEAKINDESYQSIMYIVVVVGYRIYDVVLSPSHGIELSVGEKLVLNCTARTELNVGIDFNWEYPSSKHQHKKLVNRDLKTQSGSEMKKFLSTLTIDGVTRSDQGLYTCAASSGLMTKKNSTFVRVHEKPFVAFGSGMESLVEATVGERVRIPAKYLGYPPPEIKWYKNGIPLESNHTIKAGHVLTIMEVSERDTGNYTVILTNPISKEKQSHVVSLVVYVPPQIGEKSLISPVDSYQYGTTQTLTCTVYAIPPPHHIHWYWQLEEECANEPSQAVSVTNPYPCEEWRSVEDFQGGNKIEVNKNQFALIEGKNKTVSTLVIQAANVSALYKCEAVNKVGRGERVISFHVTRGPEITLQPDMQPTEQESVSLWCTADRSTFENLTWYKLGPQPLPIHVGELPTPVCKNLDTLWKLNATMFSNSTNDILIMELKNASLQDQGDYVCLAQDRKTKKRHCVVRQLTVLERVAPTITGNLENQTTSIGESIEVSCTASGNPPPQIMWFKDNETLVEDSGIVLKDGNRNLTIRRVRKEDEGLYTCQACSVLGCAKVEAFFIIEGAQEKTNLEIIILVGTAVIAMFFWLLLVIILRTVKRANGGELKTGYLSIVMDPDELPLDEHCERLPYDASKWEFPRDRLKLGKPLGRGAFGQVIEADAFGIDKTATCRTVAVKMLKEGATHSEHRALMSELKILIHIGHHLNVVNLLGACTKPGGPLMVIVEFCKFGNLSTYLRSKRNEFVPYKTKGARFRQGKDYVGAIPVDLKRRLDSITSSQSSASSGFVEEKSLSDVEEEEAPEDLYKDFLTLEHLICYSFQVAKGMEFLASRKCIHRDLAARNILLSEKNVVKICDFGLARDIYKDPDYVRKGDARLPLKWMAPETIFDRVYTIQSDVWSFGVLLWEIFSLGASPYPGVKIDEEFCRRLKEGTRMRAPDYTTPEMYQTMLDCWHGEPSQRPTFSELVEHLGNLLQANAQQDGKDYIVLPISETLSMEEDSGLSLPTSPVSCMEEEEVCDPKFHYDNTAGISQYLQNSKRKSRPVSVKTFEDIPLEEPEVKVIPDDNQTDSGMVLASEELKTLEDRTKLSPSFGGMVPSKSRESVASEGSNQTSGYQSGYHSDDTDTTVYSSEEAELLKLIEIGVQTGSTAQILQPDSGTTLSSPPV

Consider `COc1cc2cc(Oc3ccc(NC(=O)Nc4ccc(Cl)c(C(F)(F)F)c4)cc3)c(C)nc2cc1OC`, for which, in assay [1], the inhibition (commonly the change of the read-out against control, counted positive when it falls) came to 0.83%. The growth at 0.3 µM in assay [2] was 94%.
For `COc1cc2cc(Oc3ccc(NC(=O)Nc4cccc(C(F)(F)F)c4)cc3)c(C)nc2cc1OC`, the growth at 0.5 µM was 105% in [3]; 85% in [7]; 91% in assay [8]; 95% in [16]; 106% in [17]; 107% in assay [19]. Further, the growth at 0.5 µM was 95% in [21], 113% in assay [23], 93% in assay [25] and 95% in assay [34]. Moreover, the growth at 0.005 µM turned out to be 93% in assay [4], 98% in assay [5], 103% in assay [18] and 79% in [31]. Further, the growth at 0.05 µM in [6] amounted to 96%; in assay [13] it was 104%; in assay [14] it was 92%; in assay [22], 95%; in assay [26] it was 102%; in assay [27], 95%. The growth at 0.05 µM in assay [32] was 105%. For the same molecule, the growth at 50 µM in assay [9] was -56%; in assay [11], -10%; in assay [12], -42%; in assay [20], -67%; in [24], -61%; in [28] it was -29%. Also, the growth at 50 µM in [30] was -74%. In addition, the growth at 5 µM in assay [10] was 12%; in assay [15] it was 20%; in [29], -14%; in assay [33], 5%.
